Source: patent publication US20090118337A1, “Methods and compositions for treating inflammation” (priority 2005, published 2009)
Entries after “also recorded” stand apart in the source; their conditions may differ.

Key:
NF-κB = NF-κB luciferase reporter gene assay in 16HBEo- cell pairs stimulated with PAO1; type: cell-based, human; conditions: PAO1 stimulation, FIG. 2
Experimental: Cell lines: 16HBE-S and 16HBE-AS cells were grown in EMEM supplemented with 10% fetal bovine serum, 2 mM L-glutamine, 100 units/100 μg per ml of penicillin-streptomycin and 400 μg/ml G-418 as previously described.
Reporter Gene Assays: Cells were seeded in 24-well tissue culture dishes 24 hours before transfection. 20 ug luciferase plasmid and 10 ug Renilla plasmid were mixed into 2 mls serum-free DMEM. NFκB luciferase and AP-1 plasmids were purchased from BD Biosciences CLONTECH. pRLTK was used as an internal control for transfection efficiency.
300 ul Lipofectamine PLUS reagent (Invitrogen) was mixed with 200 ul serum-free DMEM. The PLUS reagent and plasmid were incubated for 15 minutes at room temperature. 100 ul Lipofectamine was added to 2.4 ml serum-free DMEM.
The lipofectamine and the DNA-PLUS solutions were mixed and incubated for an additional 15 minutes. The transfection mix was diluted into 20 mls of serum-free DMEM. 250 ul of diluted transfection mix was added to each well and the cells were incubated for 3 hours. Cells were lysed and the lysates assayed for luciferase activity.
A final stock concentration of 10 mM troglitazone (Cayman Chemical) was dissolved in DMSO and diluted to various concentrations. DMSO was added to the cells as a control. […]

IL-8 = IL-8 secretion of cells grown with I172; type: cell-based, human; conditions: cells grown with I172, day 3
Experimental: (§1) At three or four weeks, on day 0, cells are switched to submerged culture (liquid-liquid interface, LLI) and treated with either DMSO 1:1000 (vehicle control, normal cells, Sigma, St. Louis, Mo.), or 20 μM CFTRinh-172 (kindly provided by Alan Verkman) prepared in DMSO, and diluted from a 1:1000 stock. Drugs are added to both the basolateral (1 or 2 ml volume, according to filter size) and the apical side (0.35 or 1.5 ml) and media replenished every 24H. […] At day 3, cells were committed to inflammatory stimulation with TNF IL-1 or PAO1 as indicated below. Cells committed to PAO1 stimulation were switched to serum-free media 24H prior PAO1 stimulation, kept in serum-free media until the end of the experiment, and media replenished every 12H during that time. Serum-free media contained 1:1 DMEM-Ham's F-12, pH. 7.2, L-glutamine 2.5 mM, Penicillin/Streptomycin 100 units/100 μg per ml, gentamicin 50 μg/ml, amphotericin B 1.25 μg/ml from Gibco, Invitrogen Corporation, Carlsbad, Calif.; fluconazole 2 μg/ml (DIFLUCON®, Pfizer); transferrin 5 μg/ml, hydrocortisone 5 μM, insulin 5 μg/ml, endothelial cell growth supplement 20 μg/mil, and bovine serum albumin 1 mg/ml from Sigma, St. Louis, Mo. Serum-containing media had the same antibiotics present as the serum-free media. Antibiotics were not present during PAO1 stimulation.

[1] = system: interaction between PPARγ and other transcription factors; assay: Interaction of PPARγ with other transcription factors in well differentiated airway epithelial cells treated with I172; type: cell-based, human; conditions: I172 20 uM for 72 hr; particularly following stimulation with TNFα/IL1β
Experimental: Transcription Factor Arrays: TranSignal TF-TF Interaction Array I (Panomics) was processed according to the manufacturer's instructions. Nuclear extracts from 16HBEo-sense and antisense cells were incubated with biotin-labeled double-stranded oligonucleotides. PPARγ was immunoprecipitated with 3 μg of monoclonal antibody and Dynabeads (Dynal), which are magnetic protein G beads. Free cis-elements and non-specific binding proteins were washed away. PPARγ associated biotin-labeled probes were eluted from the beads and hybridized to TranSignal Protein/DNA array membranes. The arrays were blocked and incubated with Streptavidin-HRP and developed with a chemiluminescent detection system.
In order to test the impact of CFTR deficiency on the interaction of PPAR-γ with other transcription factors, we treated well differentiated airway epithelial cells grown at the ALI with I172 (20 uM), an inhibitor of CFTR activity, continuously for 72 hr prior to preparation of nuclear extracts or stimulation. […] This model allows one to compare, in well-differentiated airway epithelial cells that have identical genetic endowment at all loci, the effect of CFTR inhibition on various cellular processes. […] During the course of these experiments, cells from the airways of a patient with CF of genotype ΔF508/ΔF508, obtained at transplant, became available and were cultured at the air-liquid interface.

[2] = system: amiloride-sensitive sodium conductance; conditions: cells grown with 20 μM I172; cited from earlier work
[3] = system: well differentiated airway epithelial cells; conditions: 20 μM I172; cited from earlier work
Smad3 = Smad3 expression in cells grown with I172; type: cell-based, human; conditions: cells grown with I172, day 3
Experimental: as §1

RhoA = assay: Activated RhoA in cells grown with I172; type: cell-based, human; conditions: cells grown with I172, day 3
Experimental: as §1

[4] = high dose, CF; cited from earlier work
[5] = system: CF mice challenged with M57-15 P. aeruginosa; assay: Acute Pseudomonas challenge model, CF mice (BAL inflammatory response); type: in vivo; conditions: pretreated by gavage, BAL 24 hours after P. aeruginosa challenge
Experimental: Pioglitazone inhibits the inflammatory response in CF mice to acute administration of Pseudomonas: Mice pretreated with pioglitazone or vehicle by gavage, then challenged with prior to challenge with M57-15 P. aeruginosa, underwent BAL for inflammatory response outcome measures 24 hours after challenge. Cell counts, cytokine values, and body weight were recorded. […] CF mice treated with vehicle had marked increase in inflammatory response compared to WT mice treated with vehicle, as previously reported for untreated mice (FIGS. 12-14).
In order to test the therapeutic potential of PPARγ agonists in CF animals, we utilized the acute pseudomonas challenge model in CF and non-CF mice, because it was the closest mimic of the acute pseudomonas challenge applied to the epithelial cells in culture. We administered pioglitazone by gavage because this is one of the two PPARγ agonists available for human use. […] However, the dose used in these studies was high compared to conventional human doses, on a weight basis, and the drug was administered prior to challenge, a luxury that may not be available for many patients with CF.

Cc1c(C)c2c(c(C)c1O)CCC(C)(COc1ccc(CC3SC(=O)NC3=O)cc1)O2 (single isomer, unassigned; (+)) [troglitazone, (+)-5[[4-[(3,4-dihydro-6-hydroxy-2,5,7,8-tetramethyl-2H-1-benzopyran-2-yl)methoxy]phenyl]methyl]-2,4thiazolidinedione]
activation of NF-κB driven luciferase activity (NF-κB): significantly inhibited

O=C(O)c1ccc(/C=C2\SC(=S)N(c3cccc(C(F)(F)F)c3)C2=O)cc1 [I172]
basal and stimulated secretion of IL-8 (IL-8): increased basal and stimulated secretion of IL-8
interaction between PPARγ and other transcription factors [1]: less interaction
amiloride-sensitive sodium conductance [2]: do not display increased amiloride-sensitive sodium conductance
cell morphology by electron microscopy [3]: no decrease in cell viability or change in cell morphology
cell viability [3]: no decrease in cell viability; also recorded: without compromising cell viability
Smad3 expression (Smad3): decreased Smad3 expression
activated RhoA (RhoA): increased activated RhoA

CC(C)Cc1ccc(C(C)C(=O)O)cc1 (centres unmarked) [ibuprofen]
incidence of gastrointestinal hemorrhage [4]: increased incidence
rate of decline of pulmonary function [4]: slowed

CCc1ccc(CCOc2ccc(CC3SC(=O)NC3=O)cc2)nc1 (centres unmarked) [pioglitazone, 5-[4-[2-(5-ethylpyridin-2-yl)ethoxyl]benzyl]thiazolidine-2,4-dione]
inflammatory response (BAL cell counts, cytokine values, body weight) in CF mice [5]: significant reduction of the inflammatory response; also recorded: In two of the three experiments, pioglitazone limited the inflammatory response; also recorded: significant reduction in inflammatory response
